The values below come from US5079376A, “Novel substance UCT-1003 and process for producing the same” (Kyowa Hakko Kogyo, Ltd., priority 1989, dated 1992).

A word on the IC50: it is the concentration that gives 50% inhibition. High values mean weaker potency in that assay, low ones greater potency in that assay.

≈ marks a conversion by molar mass, not a printed value.

For series [1], the system named is lymphocytic leukemia P388 tumor. Description: Anti-tumor activity against lymphocytic leukemia P388 tumor. It is filed as in vivo, CDF1 mice. The note with it: mean survival days vs PBS control. The procedure: Five male CDF1 mice each having a weight of about 22 g were used for each group as test animals, and 1×10^6 cells of lymphocytic leukemia P388 tumor cells were intraperitoneally implanted into the animals. Phosphate solution saline (PBS) containing UCT-1003 (0.2 ml) was once administered intraperitoneally 24 hours after the implantation of tumor cells. The composition of PBS was 0.8 g/dl NaCl, 0.02 g/dl KCl, […] Na2 HPO4 and 0.02 g/dl KH2 PO4 (pH 7.2). For comparison, 0.2 ml of PBS containing mitomycin C was intraperitoneally administered 24 hours after the implantation of tumor cells. Increased life span determined from mean survival days after the implantation is shown in Table 3 as T/C (T: mean survival days of the test groups, C: mean survival days of the control group which received 0.2 ml of PBS intraperitoneally).

A short description of the next series: Solubility in solvents. It is filed as physicochemical.
A further series deals with T24 cells. In words: Anti-tumor activity against T24 cells (growth inhibition, Neutral Red). The note with it: Homo sapiens, T-24, 72 hours, 37° C. It is filed as cell-based. The procedure:
T24 cells were suspended in a medium comprising F10 medium (Gibco Co., Ltd.), 0.1 g/ml fetal calf serum, 100 units/ml penicillin and 100 ug/ml streptomycin (hereinafter referred to as medium A) to a concentration of 2×10^4 cells/ml. The cell suspension thus prepared was put into wells of a 96-well microtiter plate in the amount of 0.1 ml per well. After incubation at 37° C. for 20 hours in a CO2 -incubator, 0.05 ml of a test sample appropriately diluted with medium A was added to each well. The cells were further cultured at 37° C. for 72 hours in the CO2 -incubator and the culture supernatant was removed. To the residue was added a medium comprising medium A and 0.02% Neutral Red in the amount of 0.1 ml per well, followed by culturing at 37° C. for one hour in the CO2 -incubator, whereby the cells were stained. After removal of the culture supernatant, the residue was washed once with physiological saline.
The pigment was extracted with 0.001N hydrochloric acid/30% ethanol and absorbance at 550 nm was measured by using a microplate reader. The concentration of the test compound at which the growth of the cells is inhibited by 50% (IC50) was calculated by comparing the absorbance of untreated cells with those of the cells treated with the test compound at known concentrations.

The subject of series [2] is Bacillus subtilis No. 10707. In words: Antibacterial activity (MIC), agar dilution method, Bacillus subtilis. It is filed as cell-based. The note with it: pH 7, read-out: minimum inhibitory concentration (MIC). The procedure:
(§1) The antibacterial activity was determined by the agar dilution method using a medium (pH 7) which comprises 3 g/l Bacto-Tryptone (Difco Laboratories), 3 g/l meat extract, 1 g/l yeast extract, 1 g/l glucose and 16 g/l agar.
A general note: Agar dilution tests growth on a series of plates holding different concentrations.

Series [3] relates to Salmonella typhi ATCC 9992. Description: Antibacterial activity (MIC), agar dilution method, Salmonella typhi. Format: cell-based. The note with it: Salmonella enterica, pH 7, read-out: minimum inhibitory concentration (MIC). The procedure:
as §1

For another series, the system named is HeLaS3 cells. Description: Anti-tumor activity against HeLaS3 cells (growth inhibition, Neutral Red). The note with it: Homo sapiens, HeLa S3, 72 hours. Format: cell-based.
Series [4] concerns Enterococcus faecium ATCC 10541. Description: Antibacterial activity (MIC), agar dilution method, Enterococcus faecium. It is filed as cell-based. The note with it: ATCC10541, pH 7, read-out: minimum inhibitory concentration (MIC). The procedure: as §1
Another series deals with Escherichia coli ATCC 26. Description: Antibacterial activity (MIC), agar dilution method, Escherichia coli. Format: cell-based. The note with it: ATCC26, pH 7, read-out: minimum inhibitory concentration (MIC). The procedure: as §1
The subject of series [5] is Staphylococcus aureus ATCC 6538P. In words: Antibacterial activity (MIC), agar dilution method, Staphylococcus aureus. It is filed as cell-based. The note with it: ATCC6538P, pH 7, read-out: minimum inhibitory concentration (MIC). The procedure: as §1
In series [6] the test system is Klebsiella pneumoniae ATCC 10031. In words: Antibacterial activity (MIC), agar dilution method, Klebsiella pneumoniae. Format: cell-based. The note with it: ATCC10031, pH 7, read-out: minimum inhibitory concentration (MIC). The procedure: as §1
The test system of series [7] is Shigella sonnei ATCC 9290. Description: Antibacterial activity (MIC), agar dilution method, Shigella sonnei. The note with it: ATCC9290, pH 7, read-out: minimum inhibitory concentration (MIC). Format: cell-based. The procedure: as §1

For `CO[C@@]12[C@H](COC(N)=O)C3=C(C(=O)C(C)=C(N)C3=O)N1C[C@@H]1N[C@@H]12` [Mitomycin C, mitomycin C, reference compound], the “Increased life span (T/C)” value in series [1] (4 mg/kg, i.p. 24 hours after i.p. implantation) is reported as 1.57.

As to `O=C1c2cc(O)cc(O)c2C(=O)c2c1cc1cc(O)cc(O)c1c2O` [UCT-1003], the Solubility in solvents result is recorded as “soluble” in “Solubility in solvents” (chloroform and ethyl acetate); “Readily soluble” in “Solubility in solvents” (dimethylsulfoxide, pyridine, methanol, ethanol and acetone); “sparingly soluble” in the series “Solubility in solvents” (water and n-hexane). Moreover, the IC50 turned out to be 0.13 µg/mL (≈ 0.384 µM) in the series on T24 cells and 0.35 µg/mL (≈ 1.03 µM) in the series with HeLaS3 cells. In addition, the MIC in series [2] was 83 µg/mL (≈ 245 µM); in [3] it was > 100 µg/mL; in series [4], 2.6 µg/mL (≈ 7.69 µM); in the series with Escherichia coli ATCC 26 it was > 100 µg/mL; in series [5], 2.6 µg/mL (≈ 7.69 µM); in [6], > 100 µg/mL. For the same compound, the MIC in series [7] is > 100 µg/mL. For the same compound, the “Increased life span (T/C)” value in series [1] (12.5 mg/kg, single i.p. 24 hours after i.p. implantation) came to 1.21; in series [1] (25 mg/kg, single i.p. 24 hours after i.p. implantation), 1.30; in series [1] (50 mg/kg, single i.p. 24 hours after i.p. implantation), 1.30.
